This experiment has as its system Acinetobacter baumannii ATCC 17961. Nature of the experiment: Antimicrobial susceptibility testing: 90% growth inhibitory concentration (IC90) determination. It counts as cell-based. The method, boiled down:
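Growth was followed kinetically by OD600 at 20-min intervals for 16 h at 35±2 °C, with ~5×10^5 CFU/ml in Iso-Sensitest broth. Compounds were tested as twofold dilutions (e.g. 50–0.097 μM final). The concentration giving 90% inhibition of log-phase growth was reported.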

[1] abbreviates: ATCC17961, Acinetobacter baumannii ATCC 17961, Iso-Sensitest broth, read-out: ATCC 17961 IC90.

Structures can show the parent of a compound that is named as a salt. Where two headings read alike, the source gives them in different places.

For `Cn1c(-c2cn(C3CC3)nc2C(F)(F)F)cnc1C(=O)Nc1ccc(C(=O)N2CCN(C(=O)[C@@H](N)CCCN)CC2)c(Cl)c1` [Example 285, (S)-N-(3-chloro-4-(4-(2,5-diaminopentanoyl)piperazine-1-carbonyl)phenyl)-5-(1-cyclopropyl-3-(trifluoromethyl)-1H-pyrazol-4-yl)-1-methyl-1H-imidazole-2-carboxamide dihydrochloride], the IC90 under setting [1] stood at 0.351 µM. On the same count and under the same terms, the same measure for `Cn1c(-c2cn(C3CC3(F)F)nc2C(F)(F)F)cnc1C(=O)Nc1ccc(C(=O)N[C@H]2[C@@H]3CN(C(=O)N[C@@H]4CNC[C@H]4O)C[C@@H]32)c(Cl)c1` (mixture of isomers) [Example 382, exo-6-[[2-chloro-4-[[5-[1-(2,2-difluorocyclopropyl)-3-(trifluoromethyl)pyrazol-4-yl]-1-methylimidazole-2-carbonyl]amino]benzoyl]amino]-N-[trans-4-hydroxypyrrolidin-azabicyclo[3.1.0]hexane-3-carboxamide, formate salt]: 0.127 µM; for `Cn1c(-c2cn(C3CC3)nc2C(F)(F)F)cnc1C(=O)Nc1ccc(C(=O)N2CCC(C3CNC3)CC2)c(Cl)c1` [Example 197, N-(4-(4-(azetidin-3-yl)piperidine-1-carbonyl)-3-chlorophenyl)-5-(1-cyclopropyl-3-(trifluoromethyl)-1H-pyrazol-4-yl)-1-methyl-1H-imidazole-2-carboxamide formate]: 0.202 µM. For `Cn1c(-c2c[nH]nc2-c2ccccc2)cnc1C(=O)Nc1ccc(C(=O)N2CCN(C(=O)C3CCNCC3)CC2)c(Cl)c1` [Example 66, N-[3-chloro-4-[4-(piperidine-4-carbonyl)piperazine-1-carbonyl]phenyl]-1-methyl-5-(3-phenyl-1H-pyrazol-4-yl)imidazole-2-carboxamide], the IC90 under setting [1] amounted to 0.825 µM. Consider `Cn1c(-c2cn([C@H]3CC3(F)F)nc2C(F)(F)F)cnc1C(=O)Nc1ccc(C(=O)N[C@H]2[C@@H]3CN(C(=O)N[C@H]4CNC[C@@H]4O)C[C@@H]32)c(Cl)c1` [Example 183, (1S,5R)-6-[[2-chloro-4-[[5-[1-[(1S)-2,2-difluorocyclopropyl]-3-(trifluoromethyl)pyrazol-4-yl]-1-methyl-imidazole-2-carbonyl]amino]benzoyl]amino]-N-[(3S,4S)-4-hydroxypyrrolidin-3-yl]-3-azabicyclo[3.1.0]hexane-3-carboxamide; Hydrochloride], for which, for the setting “Acinetobacter baumannii, ATCC17961, read-out: ATCC 17961 IC90, Acinetobacter baumannii ATCC 17961, Iso-Sensitest broth”, the IC90 was found to be 0.17 µM. With `Cn1c(-c2cn(C3CC3)nc2C(F)(F)F)cnc1C(=O)Nc1ccc(C(=O)N2CCN(C(=O)N3CCC(N)CC3)CC2)c(Cl)c1` [Example 362, N-(4-(4-(4-aminopiperidine-1-carbonyl)piperazine-1-carbonyl)-3-chlorophenyl)-5-(1-cyclopropyl-3-(trifluoromethyl)-1H-pyrazol-4-yl)-1-methyl-1H-imidazole-2-carboxamide formate], under setting [1], the IC90 is 0.48 µM.

`Cn1c(-c2cn(CCF)nc2C(F)(F)F)cnc1C(=O)Nc1ccc(C(=O)N2CCN(C3=NC(CN)CO3)CC2)c(Cl)c1` (centres unmarked) [Example 145, N-[4-[4-[4-(aminomethyl)-4,5-dihydro-1,3-oxazol-2-yl]piperazine-1-carbonyl]-3-chlorophenyl]-5-[1-(2-fluoroethyl)-3-(trifluoromethyl)pyrazol-4-yl]-1-methylimidazole-2-carboxamide;formic acid]: the IC90 under setting [1] is 0.928 µM. On the same count and under the same terms, the same measure for `C#CCn1cc(-c2cnc(C(=O)Nc3ccc(C(=O)NC4C5CN(C(=O)C6CCNCC6)CC54)c(Cl)c3)n2C)c(C(F)(F)F)n1` (centres unmarked) [Example 245, N-(3-chloro-4-((3-(piperidine-4-carbonyl)-3-azabicyclo[3.1.0]hexan-6-yl)carbamoyl)phenyl)-1-methyl-5-(1-(prop-2-yn-1-yl)-3-(trifluoromethyl)-1H-pyrazol-4-yl)-1H-imidazole-2-carboxamide formate]: 0.288 µM.

The values are drawn from patent US11390604B2 (Hoffmann-La Roche Inc., priority 2019, dated 2022).
